According to patent publication EP2119770B1, “Production of alpha-oxyfunctionalized carbonyl compounds” (priority 2008, dated 2009):
Values joined by “and” are separate entries in the source; they are usually repeats but may differ in a detail not shown here. Equal entries are not always repeated.

T1: Gox0313 (Gluconobacter oxydans, UniProt Q5FU50)
T1 sequence (Q5FU50 1-343): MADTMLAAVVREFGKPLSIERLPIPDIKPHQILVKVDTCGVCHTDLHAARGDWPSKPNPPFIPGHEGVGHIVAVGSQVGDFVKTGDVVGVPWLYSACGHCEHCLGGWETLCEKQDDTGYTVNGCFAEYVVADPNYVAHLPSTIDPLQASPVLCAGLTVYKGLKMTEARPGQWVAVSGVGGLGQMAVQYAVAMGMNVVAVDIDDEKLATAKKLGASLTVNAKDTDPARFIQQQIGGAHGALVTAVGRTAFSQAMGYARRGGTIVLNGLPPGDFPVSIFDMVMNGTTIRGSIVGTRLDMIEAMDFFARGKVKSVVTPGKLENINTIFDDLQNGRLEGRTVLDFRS

T2: Gox0646 (Gluconobacter oxydans, UniProt Q5FT73)
T2 sequence (Q5FT73 1-264): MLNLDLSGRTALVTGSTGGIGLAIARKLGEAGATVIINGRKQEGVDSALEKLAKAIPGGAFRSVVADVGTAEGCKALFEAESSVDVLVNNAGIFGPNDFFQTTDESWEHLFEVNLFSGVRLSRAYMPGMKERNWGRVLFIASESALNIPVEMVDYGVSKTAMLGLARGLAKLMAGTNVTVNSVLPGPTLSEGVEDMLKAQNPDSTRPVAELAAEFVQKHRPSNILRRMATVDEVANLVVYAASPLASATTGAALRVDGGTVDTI

T3: Gox1615 (Gluconobacter oxydans, UniProt Q5FQJ0)
T3 sequence (Q5FQJ0 1-332): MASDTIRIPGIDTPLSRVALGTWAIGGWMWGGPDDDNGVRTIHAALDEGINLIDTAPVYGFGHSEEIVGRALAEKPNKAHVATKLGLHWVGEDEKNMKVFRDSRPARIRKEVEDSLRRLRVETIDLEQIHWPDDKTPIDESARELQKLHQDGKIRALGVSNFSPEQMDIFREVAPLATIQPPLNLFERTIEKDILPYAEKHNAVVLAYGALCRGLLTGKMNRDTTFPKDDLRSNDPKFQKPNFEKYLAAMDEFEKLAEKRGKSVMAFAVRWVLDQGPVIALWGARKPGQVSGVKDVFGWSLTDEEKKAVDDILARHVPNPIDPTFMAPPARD

T4: Gox2684 (Gluconobacter oxydans, UniProt Q5HXK5)
T4 sequence (Q5HXK5 1-357): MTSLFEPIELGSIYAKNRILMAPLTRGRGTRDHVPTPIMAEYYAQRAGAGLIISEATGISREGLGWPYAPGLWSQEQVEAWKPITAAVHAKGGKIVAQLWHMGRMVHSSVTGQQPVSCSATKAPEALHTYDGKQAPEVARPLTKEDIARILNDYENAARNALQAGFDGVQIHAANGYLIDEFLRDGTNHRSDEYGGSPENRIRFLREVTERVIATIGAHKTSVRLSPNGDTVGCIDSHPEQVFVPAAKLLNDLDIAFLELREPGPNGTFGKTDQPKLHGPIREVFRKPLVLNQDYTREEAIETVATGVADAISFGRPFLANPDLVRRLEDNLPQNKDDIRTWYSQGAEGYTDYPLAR

T5: Gox0502 (Gluconobacter oxydans, UniProt Q5FTL6)
T5 sequence (Q5FTL6 1-361): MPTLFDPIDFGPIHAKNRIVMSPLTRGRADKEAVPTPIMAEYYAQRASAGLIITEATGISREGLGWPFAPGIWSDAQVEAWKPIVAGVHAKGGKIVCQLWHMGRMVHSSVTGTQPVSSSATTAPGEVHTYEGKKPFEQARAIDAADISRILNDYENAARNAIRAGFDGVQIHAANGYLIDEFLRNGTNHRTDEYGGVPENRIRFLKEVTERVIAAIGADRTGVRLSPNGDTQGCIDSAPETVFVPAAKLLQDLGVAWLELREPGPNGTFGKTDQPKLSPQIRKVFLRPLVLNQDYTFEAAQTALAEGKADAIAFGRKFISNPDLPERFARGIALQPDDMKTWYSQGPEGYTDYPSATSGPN


Columns and labels:
Gox0313 = target: T1, Gox0313; assay: Enzyme activity assay (rate of NAD(P)H decrease at 340 nm), Gox0313; type: biochemical; conditions: 10 mM substrate; for Specific Activity: Tab. 6, Gox0313, substrate reduction, cofactor NADH, pH 7.0, 30 °C
Description: (§1) Measurment of enzyme activity: NADPH-dependent alpha-ketocarbonyl reductases were assayed by a routine method used for NAD(P)-linked enzymes by recording the rate of decrease of NADPH at 340 nm (ε = 6.22 mM^-1 x cm^-1)) with substrates at 30 °C. The reaction mixture (1 ml) for reduction of alpha-ketocarbonyl substrates contained 10 mM substrate, 40 mM potassium phosphate buffer pH 7.0, 0.025 mM NAD(P)H , and the enzyme. Reactions were induced by addition of enzyme or substrate. One unit of enzyme activity was defined as the amount of enzyme catalyzing the conversion of 1 µmol of pyridine nucleotide per min at 30 °C.
(§2) NADPH-dependent α-ketocarbonyl reductases were assayed by a routine method used for NAD(P)-linked enzymes by recording the rate of decrease of NADPH at 340 nm (ε = 6.22 mM^-1.cm^-1) with substrates at 30 °C. The reaction mixture (1 ml) for reduction of alpha-ketocarbonyl substrates contained 10 mM substrate, 40 mM potassium phosphate buffer pH 7.0, 0.025 mM NADPH , and the enzyme. Reactions were induced by addition of enzyme or substrate. One unit of enzyme activity was defined as the amount of enzyme catalyzing the conversion of 1 µmol of pyridine nucleotide per min at 30 °C.
(§3) For each enzyme (Gox0313, Gox0502, Gox0644, Gox0646, Gox1615, Gox2107, and Gox2684 respectively), fresh enzyme preparations were used to validate the substrate spectrum and the kinetic activity. […] Purified NAD(P)-dependent oxidoreductases were assayed at 30 °C by a routine method used for NAD(P)-linked enzymes by recording the rate of decrease of NAD(P)H at 340 nm (ε = […]) with substrates capable of reduction reactions. The standard reaction mixture (1 ml) for the reduction reactions of substrates contained 10 mM substrate, 40 mM potassium phosphate buffer (K-phosphate buffer) pH 7.0, 0.05 mM NAD(P)H, and the enzyme unless otherwise noted. Reactions were induced by addition of enzyme or substrate. One unit of enzyme activity was defined as the amount of enzyme catalyzing the conversion of 1 µmol of pyridine nucleotide per min at 30 °C. Measurement of the protein content was performed by the method of Bradford in Anal. Biochem. 72:248-254 (1976). Table 3: Summary of enzymatic activities with α-diketones, α-ketoaldehydes and /or α-ketoesters

Gox0644 = Gox0644 (Gluconobacter oxydans, UniProt Q5FT75); assay: Enzyme activity assay (rate of NAD(P)H decrease at 340 nm), Gox0644; type: biochemical; conditions: 10 mM substrate; for Specific Activity: Tab. 4, Gox0644, cofactor NADPH, pH 7.0, 30 °C
Description: (§4) Reactions were induced by addition of enzyme or substrate. One unit of enzyme activity was defined as the amount of enzyme catalyzing the conversion of 1 µmol of pyridine nucleotide per min at 30 °C.
as §4
For each enzyme (Gox0313, Gox0502, Gox0644, Gox0646, Gox1615, Gox2107, and Gox2684 respectively), fresh enzyme preparations were used to validate the substrate spectrum and the kinetic activity. […] Reactions were induced by addition of enzyme or substrate. One unit of enzyme activity was defined as the amount of enzyme catalyzing the conversion of 1 µmol of pyridine nucleotide per min at 30 °C. […] Table 3: Summary of enzymatic activities with α-diketones, α-ketoaldehydes and /or α-ketoesters

Gox0646 = target: T2, Gox0646; assay: Enzyme activity assay (rate of NAD(P)H decrease at 340 nm), Gox0646; type: biochemical; conditions: 10 mM substrate; for Specific Activities: Tab. 9, GOX0646, cofactor NADPH, pH 7.0, 30 °C
Description: as §1, §2, §3

Gox1615 = target: T3, Gox1615; assay: Enzyme activity assay (rate of NAD(P)H decrease at 340 nm), Gox1615; type: biochemical; conditions: 10 mM substrate; for Specific Activity: Tab. 5, Gox1615, cofactor NADPH, pH 7.0, 30 °C
Description: as §1, §2, §3

Gox2107 = Gox2107 (Gluconobacter oxydans, UniProt Q5FP53); assay: Enzyme activity assay (rate of NAD(P)H decrease at 340 nm), Gox2107; type: biochemical; conditions: for Specific Activity: Tab. 7, Gox2107, cofactor NADPH, 10 mM substrate, pH 7.0, 30 °C
Description: as §1, §2, §3

Gox2684 = target: T4, Gox2684; assay: Enzyme activity assay (rate of NAD(P)H decrease at 340 nm), Gox2684; type: biochemical; conditions: Tab. 8, GOX2684; cofactor NADPH; 10 mM substrate, pH 7.0, 30 °C
Description: as §1, §2, §3

Gox0502 = target: T5, Gox0502; assay: Enzyme activity assay (rate of NAD(P)H decrease at 340 nm), Gox0502; type: biochemical; set-up: Strep-tag II (N); made in house; host or cells: E. coli BL21 or E. coli DH5α (pASK-IBA5); conditions: 10 mM substrate; for Specific Activity: Tab. 7, Gox0502, cofactor NADPH, pH 7.0, 30 °C
Description: as §1, §2, §3

[1] = substrate: CCC(=O)C(C)=O; assay: Enzyme kinetics (Lineweaver-Burk plots), Gox0646; type: biochemical, Gluconobacter oxydans; conditions: other: Gox0646; substrate 0.025 to 10 mM
Description: Determination of pH and temperature optima and enzyme kinetics: The optimum pH for enzyme activities was determined by a modified method of Salusjärvi, T. et al., Appl. Microbiol. Biotechnol. 65:306-314 (2004) using the following buffer system (50 mM final concentration each): sodium acetate pH 4.5 - 6.5, potassium phosphate pH 6.5 - 8.0, Tris-HCl pH 8.0 - 10. Temperature optima for the biocatalysts were determined under standard reaction conditions at temperatures ranging from 20 - 80 °C. The Michaelis constant (Km) for the proteins was determined from purified enzyme by Lineweaver-Burk plots. Assays were performed at optimum pH for each enzyme and at 30 °C using the top substrate and a targeted substrate. The Km for each substrate was calculated using concentrations of 0.0025 to 10 mM, and the Km NAD(P)H and NAD(P) was calculated using concentrations of 0.01 to 0.5 mM
The Michaelis constants were determined from purified enzyme by Lineweaver-Burk plots. The Km and Vmax values for the substrates were calculated using concentrations of 0.025 to 10 mM, The optimal pH values and temperatures for enzyme activities are also shown in Tab. 11. Tab. 11: Summary of kinetic parameters

Molecule | Specific Activity (Gox0313) [U/mg] | Specific Activity (Gox0644) [U/mg] | Specific Activities (Gox0646) [U/mg] | Specific Activity (Gox1615) [U/mg] | Specific Activity (Gox2107) [U/mg] | Specific Activities (Gox2684) [U/mg] | Specific Activity (Gox0502) | other results
CC(=O)C(C)=O [2,3-butanedione] | 28.5 | 60.0 | 0.8 | 6 | < 0.1 | 0.5 | 0.5 U/mg | 
O=C1C=CC(=O)C=C1 [p-benzoquinone] |  |  | 0.3 |  | 180.5 |  | 10 U/mg | 
O=C1C=CC(=O)c2ccccc21 [1,4-naphthoquinone] |  |  | 0.2 |  | 217.5 | 3.4 | 16.6 U/mg | activities (Gox2107; Gox2107, reduction with NADPH): 217.4 µmol/mg/min
CC=CC(C)=O [3-penten-2-one] | 1.5 |  |  | 0.5 | 1.9 | 1.9 | 3.6 U/mg | 
O=C1C=C(O)C(=O)c2ccccc21 [2-hydroxy-1,4-naphthoquinone] |  |  |  |  | 16.04 | 0.7 | 0.75 U/mg | 
CC(=O)C(=O)c1ccccc1 [1-phenyl-1,2-propanedione] | 0.2 | 75.4 | 6.0 | 5.4 | < 0.1 |  | 2,0 U/mg | Activity (Gox0313; Table 3, Gox0313, K-phosphate buffer pH 7.0, 0.05 mM NAD(P)H, 30 °C): 0.2 U/mg; Activity (Gox0644; Table 3, Gox0644, K-phosphate buffer pH 7.0, 0.05 mM NAD(P)H, 30 °C): 75.4 U/mg; Activity (Gox0646; Table 3, Gox0646, K-phosphate buffer pH 7.0, 0.05 mM NAD(P)H, 30 °C): 6.0 U/mg; Activity (Gox1615; Table 3, Gox1615, K-phosphate buffer pH 7.0, 0.05 mM NAD(P)H, 30 °C): 5.4 U/mg; Activity (Gox0502; Table 3, Gox0502, K-phosphate buffer pH 7.0, 0.05 mM NAD(P)H, 30 °C): 2.0 U/mg
O=C1Nc2ccccc2C1=O [Isatin] |  | 16.1 | 0.1 | 2.4 |  |  |  | 
Gox0646 (Gluconobacter oxydans 621H) (protein) MLNLDLSGRTALVTGSTGGIGLAIARKLGEAGATVIINGRKQEGVDSALEKLAKAIPGGAFRSVVADVGTAEGCKALFEAESSVDVLVNNAGIFGPNDFFQTTDESWEHLFEVNLFSGVRLSRAYMPGMKERNWGRVLFIASESALNIPVEMVDYGVSKTAMLGLARGLAKLMAGTNVTVNSVLPGPTLSEGVEDMLKAQNPDSTRPVAELAAEFVQKHRPSNILRRMATVDEVANLVVYAASPLASATTGAALRVDGGTVDTI |  |  |  |  |  |  |  | Km [1]: 9 mM and 9.3 mM; Vmax [1]: 10 U/mg protein and 10.0 µmol/min•mg
